# Values of other authors as cited in patent US20210023029A1, “EDASALONEXENT DOSING REGIMEN FOR TREATING MUSCULAR DYSTROPHY” (Catabasis Pharmaceuticals, Inc., priority 2017, published 2021).
# Tested on: mdx mice
# Details: long-term studies on mdx mice; cited from earlier work
compound,measurement,value
CC/C=C\C/C=C\C/C=C\C/C=C\C/C=C\CCCC(=O)NCCNC(=O)c1ccccc1O [CAT-1041],"muscle function, skeletal muscle weight and muscle fibrosis","preserves muscle function, increases skeletal muscle weight, and reduces muscle fibrosis"
